Experimental data: patent publication US20230148214A1, “INDAZOLES AND AZAINDAZOLES AS LRRK2 INHIBITORS” (ESCAPE Bio, Inc., priority 2020, published 2023)

What was measured:
LRRK2 G2019S = target: T1, LRRK2 G2019S (Homo sapiens, UniProt Q5S007, G2019S); assay: LRRK2 Kinase Activity Assay (LanthaScreen TR-FRET), G2019S; assay type: biochemical; settings: recombinant G2019S-LRRK2, 25 μM ATP, 400 nM LRRKtide, 60 min; class symbols
T1 construct: purchased Life Technologies PV4881
Method: LRRK2 kinase activity was measured using a LanthaScreen™ Kinase Activity Assay from ThermoFisher Scientific. Recombinant wild type or G2019S-LRRK2 protein (Life Technologies, PR8604B or PV4881, respectively), was incubated with a fluorescein-labeled peptide substrate called LRRKtide that is based upon ezrin/radixin/moesin (ERM) (Life Technologies, PV4901) in the presence of ATP and serially diluted compound. […] Compound-dependent inhibition of the TR-FRET signal was used to generate a concentration-response curve for IC50 determination.
After 60 min incubation at room temperature, the reaction was stopped by addition of 10 μL of 2×stop solution containing a final concentration of 2 nM anti-pERM antibody and 10 mM EDTA.

LRRK2 WT = target: T2, LRRK2 WT (Homo sapiens, UniProt Q5S007); assay: LRRK2 Kinase Activity Assay (LanthaScreen TR-FRET), wild type; assay type: biochemical; settings: recombinant wild type LRRK2, 25 μM ATP, 400 nM LRRKtide, 60 min; class symbols
T2 construct: purchased Life Technologies PR8604B
Procedure, shortened: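 IC50 fitted to the compound-dependent loss of TR-FRET signal. Each kinase form, wild type or G2019S, phosphorylated the fluorescein-tagged ERM-derived LRRKtide in the presence of ATP and compound dilutions over 60 min at room temperature; quench contained 10 mM EDTA and 2 nM anti-pERM antibody (final).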

T1 sequence (Q5S007 whole entry G2019S): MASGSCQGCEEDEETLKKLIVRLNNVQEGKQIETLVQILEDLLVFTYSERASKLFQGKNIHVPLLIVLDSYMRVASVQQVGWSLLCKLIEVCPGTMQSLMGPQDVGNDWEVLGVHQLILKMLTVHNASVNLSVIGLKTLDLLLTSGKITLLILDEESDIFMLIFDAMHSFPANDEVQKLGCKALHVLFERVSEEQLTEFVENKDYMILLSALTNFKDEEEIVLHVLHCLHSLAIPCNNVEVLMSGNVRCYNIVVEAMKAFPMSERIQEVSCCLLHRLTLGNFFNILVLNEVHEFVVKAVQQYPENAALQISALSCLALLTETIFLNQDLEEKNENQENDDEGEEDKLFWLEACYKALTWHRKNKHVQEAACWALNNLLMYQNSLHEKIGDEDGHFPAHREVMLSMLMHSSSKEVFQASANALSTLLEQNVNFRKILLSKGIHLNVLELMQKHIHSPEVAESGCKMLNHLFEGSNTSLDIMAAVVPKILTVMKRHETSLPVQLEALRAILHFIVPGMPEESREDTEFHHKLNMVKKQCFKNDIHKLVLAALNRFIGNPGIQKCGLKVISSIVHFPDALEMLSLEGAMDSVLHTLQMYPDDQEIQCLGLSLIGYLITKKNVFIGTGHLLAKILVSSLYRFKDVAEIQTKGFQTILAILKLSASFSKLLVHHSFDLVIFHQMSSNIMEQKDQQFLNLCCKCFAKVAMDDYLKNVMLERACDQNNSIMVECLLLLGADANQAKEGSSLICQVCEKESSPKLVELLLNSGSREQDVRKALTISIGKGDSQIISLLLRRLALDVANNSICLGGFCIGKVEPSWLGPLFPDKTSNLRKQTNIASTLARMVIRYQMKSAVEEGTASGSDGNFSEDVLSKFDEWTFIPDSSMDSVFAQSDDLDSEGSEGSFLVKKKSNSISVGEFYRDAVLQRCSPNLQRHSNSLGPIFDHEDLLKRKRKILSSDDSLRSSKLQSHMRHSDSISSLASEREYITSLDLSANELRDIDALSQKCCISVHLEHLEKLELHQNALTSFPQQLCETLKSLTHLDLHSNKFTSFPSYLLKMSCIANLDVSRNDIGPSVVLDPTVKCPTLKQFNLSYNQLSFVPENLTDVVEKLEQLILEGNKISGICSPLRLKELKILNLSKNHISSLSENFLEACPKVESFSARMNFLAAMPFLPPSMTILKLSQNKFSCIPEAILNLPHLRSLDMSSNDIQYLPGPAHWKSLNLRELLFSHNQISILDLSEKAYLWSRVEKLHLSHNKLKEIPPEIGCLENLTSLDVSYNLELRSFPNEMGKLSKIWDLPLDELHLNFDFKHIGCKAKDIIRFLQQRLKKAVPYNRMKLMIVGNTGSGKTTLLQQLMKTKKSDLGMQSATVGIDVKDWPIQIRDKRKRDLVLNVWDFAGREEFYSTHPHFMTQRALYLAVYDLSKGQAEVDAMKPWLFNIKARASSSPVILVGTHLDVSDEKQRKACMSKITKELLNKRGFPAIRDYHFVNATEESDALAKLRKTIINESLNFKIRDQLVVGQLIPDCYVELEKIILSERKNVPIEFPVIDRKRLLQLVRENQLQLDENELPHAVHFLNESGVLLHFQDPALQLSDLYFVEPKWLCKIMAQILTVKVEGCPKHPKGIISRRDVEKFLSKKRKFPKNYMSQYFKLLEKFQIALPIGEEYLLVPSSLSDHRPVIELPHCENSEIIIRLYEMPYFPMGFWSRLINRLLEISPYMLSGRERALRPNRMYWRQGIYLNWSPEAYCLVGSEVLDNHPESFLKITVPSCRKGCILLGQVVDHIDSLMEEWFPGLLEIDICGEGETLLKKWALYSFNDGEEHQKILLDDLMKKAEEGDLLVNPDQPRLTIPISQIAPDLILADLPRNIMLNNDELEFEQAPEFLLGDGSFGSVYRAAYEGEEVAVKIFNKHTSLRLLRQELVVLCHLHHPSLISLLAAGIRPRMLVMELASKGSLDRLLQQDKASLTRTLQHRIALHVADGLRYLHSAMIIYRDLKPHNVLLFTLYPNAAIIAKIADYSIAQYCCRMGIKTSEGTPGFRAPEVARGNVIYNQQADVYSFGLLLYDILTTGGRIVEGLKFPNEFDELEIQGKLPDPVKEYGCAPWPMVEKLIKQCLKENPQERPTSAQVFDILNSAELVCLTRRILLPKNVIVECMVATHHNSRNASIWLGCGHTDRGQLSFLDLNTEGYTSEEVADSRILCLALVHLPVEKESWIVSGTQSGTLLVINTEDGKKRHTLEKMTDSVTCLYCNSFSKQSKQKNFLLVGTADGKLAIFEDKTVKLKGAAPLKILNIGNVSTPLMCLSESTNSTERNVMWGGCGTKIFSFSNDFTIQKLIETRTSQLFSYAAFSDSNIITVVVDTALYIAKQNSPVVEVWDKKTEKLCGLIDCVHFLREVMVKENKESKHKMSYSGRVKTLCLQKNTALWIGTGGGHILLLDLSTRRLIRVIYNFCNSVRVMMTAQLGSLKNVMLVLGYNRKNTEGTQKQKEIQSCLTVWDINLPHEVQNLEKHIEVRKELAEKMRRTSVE
T2 sequence (Q5S007 whole entry): as the sequence (Q5S007 whole entry G2019S) above, with S2019G counted along it

| SMILES | IC50 (LRRK2 G2019S) [nM] | IC50 (LRRK2 WT) [nM] |
| --- | --- | --- |
| COc1n[nH]c2ccc(O[C@H]3CCCc4cc(C#N)c(Cl)nc43)cc12 (single isomer, unassigned) [186, enantiomer 2, 2-Chloro-8-[(3-methoxy-1H-indazol-5-yl)oxy]-5,6,7,8-tetrahydroquinoline-3-carbonitrile] | 100 to 1000 | 1000 to 10000 |
| COc1n[nH]c2ccc(O[C@H]3CCc4cc(C#N)c(Br)nc43)cc12 (single isomer, unassigned) [187, enantiomer 1, 2-Bromo-7-[(3-methoxy-1H-indazol-5-yl)oxy]-6,7-dihydro-5H-cyclopenta[b]pyridine-3-carbonitrile] | < 100 | < 100 |
| COc1n[nH]c2ccc(O[C@H]3CCc4cc(C#N)c(Br)nc43)cc12 (single isomer, unassigned) [187, enantiomer 2, 2-Bromo-7-[(3-methoxy-1H-indazol-5-yl)oxy]-6,7-dihydro-5H-cyclopenta[b]pyridine-3-carbonitrile] | 100 to 1000 | 100 to 1000 |
| COc1n[nH]c2ccc(O[C@H]3CCc4cc(C#N)c(Cl)cc43)cc12 (single isomer, unassigned) [189, enantiomer 2, 6-Chloro-1-[(3-methoxy-1H-indazol-5-yl)oxy]-2,3-dihydro-1H-indene-5-carbonitrile] | < 100 | 100 to 1000 |
| Cc1cc2[nH]nc(-c3cnco3)c2cc1NC1CCCc2cc(C#N)cnc21 (single isomer, unassigned) [190, enantiomer 1, 8-[[6-Methyl-3-(1,3-oxazol-5-yl)-1H-indazol-5-yl]amino]-5,6,7,8-tetrahydroquinoline-3-carbonitrile] | < 100 | < 100 |
| N#Cc1ccc2c(c1)OCC[C@@H]2Nc1ccc2[nH]nc(-c3cnco3)c2c1 (single isomer, unassigned) [191, enantiomer 1, 4-((3-(oxazol-5-yl)-1H-indazol-5-yl)amino)chromane-7-carbonitrile] | < 100 | 100 to 1000 |
| N#Cc1ccc2c(c1)OCC[C@@H]2Nc1ccc2[nH]nc(-c3cnco3)c2c1 (single isomer, unassigned) [191, enantiomer 2, 4-{[3-(1,3-oxazol-5-yl)-1H-indazol-5-yl]amino}-3,4-dihydro-2H-1-benzopyran-7-carbonitrile] | < 100 | < 100 |
| N#Cc1ccc2c(c1)OCC[C@@H]2Nc1ccc2[nH]nc(-c3cnoc3)c2c1 (single isomer, unassigned) [192, enantiomer 2, 4-((3-(Isoxazol-4-yl)-1H-indazol-5-yl)amino)chromane-7-carbonitrile] | < 100 | < 100 |
| N#Cc1ccc2c(c1)OCC[C@@H]2Nc1ccc2[nH]nc(I)c2c1 (single isomer, unassigned) [193, enantiomer 1, 4-((3-Iodo-1H-indazol-5-yl)amino)chromane-7-carbonitrile] | 100 to 1000 | 1000 to 10000 |
| N#Cc1cnc2c(c1)OCC[C@@H]2Nc1ccc2[nH]nc(-c3cnco3)c2c1 (single isomer, unassigned) [194, enantiomer 1, 4-((3-(Oxazol-5-yl)-1H-indazol-5-yl)amino)-3,4-dihydro-2H-pyrano[3,2-b]pyridine-7-carbonitrile] | < 100 | < 100 |
| Cc1n[nH]c2ccc(O[C@H]3CCc4cc(C#N)ccc43)cc12 (single isomer, unassigned) [Example 1, enantiomer 1, 1-((3-Methyl-1H-indazol-5-yl)oxy)-2,3-dihydro-1H-indene-5-carbonitrile] | < 100 | 100 to 1000 |
| Cc1n[nH]c2ccc(O[C@H]3CCc4cc(C#N)ccc43)cc12 (single isomer, unassigned) [Example 1, enantiomer 2, 1-((3-Methyl-1H-indazol-5-yl)oxy)-2,3-dihydro-1H-indene-5-carbonitrile] | < 100 | 100 to 1000 |
| N#Cc1ccc2c(c1)CC[C@@H]2Oc1ccc2[nH]nc(-c3cnn(C(F)F)c3)c2c1 (single isomer, unassigned) [Example 4, enantiomer 1, 1-((3-(1-(Difluoromethyl)-1H-pyrazol-4-yl)-1H-indazol-5-yl)oxy)-2,3-dihydro-1H-indene-5-carbonitrile] | < 100 | 100 to 1000 |
| N#Cc1ccc2c(c1)CCC[C@@H]2Nc1ccc2[nH]nc(-c3cnoc3)c2c1 (single isomer, unassigned) [Example 6, enantiomer 1, 5-((3-(Isoxazol-4-yl)-1H-indazol-5-yl)amino)-5,6,7,8-tetrahydronaphthalene-2-carbonitrile] | < 100 | < 100 |
| N#Cc1ccc2c(c1)CCC[C@@H]2Nc1ccc2[nH]nc(-c3cnoc3)c2c1 (single isomer, unassigned) [Example 6, enantiomer 2, 5-((3-(Isoxazol-4-yl)-1H-indazol-5-yl)amino)-5,6,7,8-tetrahydronaphthalene-2-carbonitrile] | < 100 | 100 to 1000 |
| N#Cc1cnc2c(c1)CCC[C@@H]2Nc1ccc2[nH]nc(-c3cnoc3)c2c1 (single isomer, unassigned) [Example 7, enantiomer 2, 8-((3-(Isoxazol-4-yl)-1H-indazol-5-yl)amino)-5,6,7,8-tetrahydroquinoline-3-carbonitrile] | < 100 | < 100 |
| N#Cc1ccc2c(c1)CC[C@@H]2Nc1ccc2[nH]nc(-c3cnoc3)c2c1 (single isomer, unassigned) [Example 8, enantiomer 1, 1-((3-(Isoxazol-4-yl)-1H-indazol-5-yl)amino)-2,3-dihydro-1H-indene-5-carbonitrile] | < 100 | < 100 |

The remaining lines, values ahead:

| IC50 (LRRK2 G2019S) [nM] | IC50 (LRRK2 WT) [nM] | SMILES |
| --- | --- | --- |
| 100 to 1000 | 1000 to 10000 | COc1n[nH]c2ccc(O[C@H]3CCc4cc(C#N)c(Cl)nc43)cc12 (single isomer, unassigned) [185, enantiomer 2, 2-Chloro-7-[(3-methoxy-1H-indazol-5-yl)oxy]-6,7-dihydro-5H-cyclopenta[b]pyridine-3-carbonitrile] |
| < 100 | < 100 | COc1n[nH]c2ccc(O[C@H]3CCCc4cc(C#N)c(Cl)nc43)cc12 (single isomer, unassigned) [186, enantiomer 1, 2-Chloro-8-[(3-methoxy-1H-indazol-5-yl)oxy]-5,6,7,8-tetrahydroquinoline-3-carbonitrile] |
| < 100 | < 100 | COc1n[nH]c2ccc(O[C@H]3CCCc4cc(C#N)c(Br)nc43)cc12 (single isomer, unassigned) [188, enantiomer 1, 2-Bromo-8-[(3-methoxy-1H-indazol-5-yl)oxy]-5,6,7,8-tetrahydroquinoline-3-carbonitrile] |
| 100 to 1000 | 1000 to 10000 | COc1n[nH]c2ccc(O[C@H]3CCCc4cc(C#N)c(Br)nc43)cc12 (single isomer, unassigned) [188, enantiomer 2, 2-Bromo-8-[(3-methoxy-1H-indazol-5-yl)oxy]-5,6,7,8-tetrahydroquinoline-3-carbonitrile] |
| 100 to 1000 | 1000 to 10000 | COc1n[nH]c2ccc(O[C@H]3CCc4cc(C#N)c(Cl)cc43)cc12 (single isomer, unassigned) [189, enantiomer 1, 6-Chloro-1-[(3-methoxy-1H-indazol-5-yl)oxy]-2,3-dihydro-1H-indene-5-carbonitrile] |
| 100 to 1000 | 100 to 1000 | N#Cc1ccc2c(c1)OCC[C@@H]2Nc1ccc2[nH]nc(-c3cnoc3)c2c1 (single isomer, unassigned) [192, enantiomer 1, 4-((3-(Isoxazol-4-yl)-1H-indazol-5-yl)amino)chromane-7-carbonitrile] |
| < 100 | < 100 | N#Cc1ccc2c(c1)OCC[C@@H]2Nc1ccc2[nH]nc(I)c2c1 (single isomer, unassigned) [193, enantiomer 2, 4-((3-Iodo-1H-indazol-5-yl)amino)chromane-7-carbonitrile] |
| 100 to 1000 | 100 to 1000 | N#Cc1cnc2c(c1)OCC[C@@H]2Nc1ccc2[nH]nc(-c3cnco3)c2c1 (single isomer, unassigned) [194, enantiomer 2, 4-((3-(Oxazol-5-yl)-1H-indazol-5-yl)amino)-3,4-dihydro-2H-pyrano[3,2-b]pyridine-7-carbonitrile] |
| < 100 | < 100 | N#Cc1cnc2c(c1)CCC[C@@H]2Oc1ccc2[nH]nc(-c3cnoc3)c2c1 (single isomer, unassigned) [Example 2, enantiomer 1, 8-((3-(Isoxazol-4-yl)-1H-indazol-5-yl)oxy)-5,6,7,8-tetrahydroquinoline-3-carbonitrile] |
| < 100 | < 100 | N#Cc1ccc2c(c1)CCC2Oc1ccc2[nH]nc(-c3cnco3)c2c1 (single isomer, unassigned) [Example 3, enantiomer 1, 1-((3-(Oxazol-5-yl)-1H-indazol-5-yl)oxy)-2,3-dihydro-1H-indene-5-carbonitrile] |
| < 100 | < 100 | N#Cc1ccc2c(c1)CC[C@@H]2Oc1ccc2[nH]nc(-c3cnoc3)c2c1 (single isomer, unassigned) [Example 5, enantiomer 1, 1-((3-(Isoxazol-4-yl)-1H-indazol-5-yl)oxy)-2,3-dihydro-1H-indene-5-carbonitrile] |
| 100 to 1000 | 1000 to 10000 | N#Cc1cnc2c(c1)CCC[C@@H]2Nc1ccc2[nH]nc(-c3cnoc3)c2c1 (single isomer, unassigned) [Example 7, enantiomer 1, 8-((3-(Isoxazol-4-yl)-1H-indazol-5-yl)amino)-5,6,7,8-tetrahydroquinoline-3-carbonitrile] |
